# System: P12-Ichikawa
# Assay: cell viability relative to DMSO control; higher = less cytotoxic
# Settings: 48 h
# Outline: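 In 1536-well plates, 5 μl of leukemia cells were seeded per well: 500 cells/well for NOMO1 or SEM and 1000 cells/well for P12-Ichikawa. Each line had first been adapted for at least four passages in each medium. Library compounds in DMSO were pin-dosed at 11 threefold concentrations between 47 μM and 0.79 nM, and CellTiter-Glo One luminescence was read after 48 h at 37°C. Viability is a per-plate percentage relative to DMSO wells, with cell-free wells as background.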
# [1] = HPLM + 10% dialyzed FBS, 0.000781 µM
# [2] = HPLM + 10% dialyzed FBS, 0.00234 µM
# [3] = HPLM + 10% dialyzed FBS, 0.00702 µM
# [4] = HPLM + 10% dialyzed FBS, 0.0211 µM
# [5] = HPLM + 10% dialyzed FBS, 0.0632 µM
# [6] = HPLM + 10% dialyzed FBS, 0.19 µM
# [7] = HPLM + 10% dialyzed FBS, 0.569 µM
# [8] = HPLM + 10% dialyzed FBS, 1.71 µM
# [9] = HPLM + 10% dialyzed FBS, 5.12 µM
# [10] = HPLM + 10% dialyzed FBS, 15.4 µM
# [11] = HPLM + 10% dialyzed FBS, 46.1 µM
# [12] = RPMI 5 mM glucose + 10% FBS, 0.000781 µM
# [13] = RPMI 5 mM glucose + 10% FBS, 0.00234 µM
# [14] = RPMI 5 mM glucose + 10% FBS, 0.00702 µM
# [15] = RPMI 5 mM glucose + 10% FBS, 0.0211 µM
# [16] = RPMI 5 mM glucose + 10% FBS, 0.0632 µM
# [17] = RPMI 5 mM glucose + 10% FBS, 0.19 µM
# [18] = RPMI 5 mM glucose + 10% FBS, 0.569 µM
# [19] = RPMI 5 mM glucose + 10% FBS, 1.71 µM
# [20] = RPMI 5 mM glucose + 10% FBS, 5.12 µM
# [21] = RPMI 5 mM glucose + 10% FBS, 15.4 µM
# [22] = RPMI 5 mM glucose + 10% FBS, 46.1 µM
# [23] = RPMI 5 mM glucose + 10% dialyzed FBS, 0.000781 µM
# [24] = RPMI 5 mM glucose + 10% dialyzed FBS, 0.00234 µM
# [25] = RPMI 5 mM glucose + 10% dialyzed FBS, 0.00702 µM
# [26] = RPMI 5 mM glucose + 10% dialyzed FBS, 0.0211 µM
# [27] = RPMI 5 mM glucose + 10% dialyzed FBS, 0.0632 µM
# [28] = RPMI 5 mM glucose + 10% dialyzed FBS, 0.19 µM
# [29] = RPMI 5 mM glucose + 10% dialyzed FBS, 0.569 µM
# [30] = RPMI 5 mM glucose + 10% dialyzed FBS, 1.71 µM
# [31] = RPMI 5 mM glucose + 10% dialyzed FBS, 5.12 µM
# [32] = RPMI 5 mM glucose + 10% dialyzed FBS, 15.4 µM
# [33] = RPMI 5 mM glucose + 10% dialyzed FBS, 46.1 µM
compound,measurement,setting,value
CC1(C)[C@@H](O)CC[C@@]2(C)[C@H]1CC[C@]3(C)[C@@H]2C(=O)\C=C/4[C@@H]5C[C@](C)(CC[C@]5(C)CC[C@@]34C)C(O)=O,cell viability,[1],99.9%
same,cell viability,[2],125%
same,cell viability,[3],117%
same,cell viability,[4],112%
same,cell viability,[5],109%
same,cell viability,[6],118%
same,cell viability,[7],110%
same,cell viability,[8],113%
same,cell viability,[9],104%
same,cell viability,[10],102%
same,cell viability,[11],97.2%
same,cell viability,[12],109%
same,cell viability,[13],121%
same,cell viability,[14],116%
same,cell viability,[15],122%
same,cell viability,[16],114%
same,cell viability,[17],118%
same,cell viability,[18],110%
same,cell viability,[19],122%
same,cell viability,[20],100%
same,cell viability,[21],110%
same,cell viability,[22],111%
same,cell viability,[23],97.5%
same,cell viability,[24],105%
same,cell viability,[25],113%
same,cell viability,[26],113%
same,cell viability,[27],108%
same,cell viability,[28],104%
same,cell viability,[29],98.9%
same,cell viability,[30],106%
same,cell viability,[31],94.6%
same,cell viability,[32],103%
same,cell viability,[33],96.9%
COc1ccc(/C=C/C(=O)Nc2ccccc2C(=O)O)cc1OC,cell viability,[1],110%
same,cell viability,[2],111%
same,cell viability,[3],108%
same,cell viability,[4],112%
same,cell viability,[5],121%
same,cell viability,[6],108%
same,cell viability,[7],93.1%
same,cell viability,[8],100%
same,cell viability,[9],108%
same,cell viability,[10],99.3%
same,cell viability,[11],102%
same,cell viability,[12],112%
same,cell viability,[13],108%
same,cell viability,[14],113%
same,cell viability,[15],115%
same,cell viability,[16],113%
same,cell viability,[17],101%
same,cell viability,[18],107%
same,cell viability,[19],106%
same,cell viability,[20],107%
same,cell viability,[21],105%
same,cell viability,[22],102%
same,cell viability,[23],103%
same,cell viability,[24],101%
same,cell viability,[25],113%
same,cell viability,[26],114%
same,cell viability,[27],111%
same,cell viability,[28],110%
same,cell viability,[29],98.5%
same,cell viability,[30],80.4%
same,cell viability,[31],103%
same,cell viability,[32],98.5%
same,cell viability,[33],94.8%
COCCCC/C(=N\OCCN)c1ccc(C(F)(F)F)cc1,cell viability,[1],98.4%
same,cell viability,[2],87.1%
same,cell viability,[3],91.2%
same,cell viability,[4],91%
same,cell viability,[5],94.9%
same,cell viability,[6],80.8%
same,cell viability,[7],74.4%
same,cell viability,[8],85%
same,cell viability,[9],80.9%
same,cell viability,[10],72.2%
same,cell viability,[11],63.5%
same,cell viability,[12],83.5%
same,cell viability,[13],81.8%
same,cell viability,[14],91.7%
same,cell viability,[15],79.8%
same,cell viability,[16],95.8%
same,cell viability,[17],72%
same,cell viability,[18],62.2%
same,cell viability,[19],83.2%
same,cell viability,[20],80.3%
same,cell viability,[21],67%
same,cell viability,[22],41.9%
same,cell viability,[23],79.8%
same,cell viability,[24],80.7%
same,cell viability,[25],76.9%
same,cell viability,[26],84.6%
same,cell viability,[27],84.4%
same,cell viability,[28],80.3%
same,cell viability,[29],77.9%
same,cell viability,[30],78.8%
same,cell viability,[31],74.5%
same,cell viability,[32],77.2%
same,cell viability,[33],52.7%
Cc1ccc(C(=O)Nc2ccc([S+](=O)([O-])O)c3cc([S+](=O)([O-])O)cc([S+](=O)([O-])O)c23)cc1NC(=O)c1cccc(NC(=O)Nc2cccc(C(=O)Nc3cc(C(=O)Nc4ccc([S+](=O)([O-])O)c5cc([S+](=O)([O-])O)cc([S+](=O)([O-])O)c45)ccc3C)c2)c1,cell viability,[1],97.5%
same,cell viability,[2],104%
same,cell viability,[3],92.8%
same,cell viability,[4],95.4%
same,cell viability,[5],96.4%
same,cell viability,[6],87.2%
same,cell viability,[7],77.3%
same,cell viability,[8],81.5%
same,cell viability,[9],57.1%
same,cell viability,[10],55.2%
same,cell viability,[11],47%
same,cell viability,[12],97.3%
same,cell viability,[13],89.2%
same,cell viability,[14],99.6%
same,cell viability,[15],102%
same,cell viability,[16],88.6%
same,cell viability,[17],82.2%
same,cell viability,[18],92.4%
same,cell viability,[19],81.1%
same,cell viability,[20],60.5%
same,cell viability,[21],53.4%
same,cell viability,[22],44.3%
same,cell viability,[23],99.1%
same,cell viability,[24],94.9%
same,cell viability,[25],93.5%
same,cell viability,[26],94%
same,cell viability,[27],89.3%
same,cell viability,[28],88.8%
same,cell viability,[29],80%
same,cell viability,[30],75.9%
same,cell viability,[31],56.4%
same,cell viability,[32],54%
same,cell viability,[33],42.9%
CC(C)[C@H](O)C(=O)N[C@@H](C)C(=O)N[C@@H]1C(=O)N(C)CCc2ccccc21,cell viability,[1],112%
same,cell viability,[2],114%
same,cell viability,[3],111%
same,cell viability,[4],112%
same,cell viability,[5],115%
same,cell viability,[6],108%
same,cell viability,[7],102%
same,cell viability,[8],90.7%
same,cell viability,[9],110%
same,cell viability,[10],91.4%
same,cell viability,[11],90.7%
same,cell viability,[12],114%
same,cell viability,[13],123%
same,cell viability,[14],122%
same,cell viability,[15],109%
same,cell viability,[16],119%
same,cell viability,[17],116%
same,cell viability,[18],104%
same,cell viability,[19],113%
same,cell viability,[20],106%
same,cell viability,[21],97.7%
same,cell viability,[22],105%
same,cell viability,[23],116%
same,cell viability,[24],113%
same,cell viability,[25],113%
same,cell viability,[26],105%
same,cell viability,[27],96.6%
same,cell viability,[28],106%
same,cell viability,[29],102%
same,cell viability,[30],99.6%
same,cell viability,[31],94.6%
same,cell viability,[32],98.8%
same,cell viability,[33],92.7%
CNC(=O)c1nn(C)c2c1C(C)(C)Cc1cnc(Nc3ccc(N4CCN(C)CC4)cc3)nc1-2,cell viability,[1],106%
same,cell viability,[2],107%
same,cell viability,[3],112%
same,cell viability,[4],105%
same,cell viability,[5],108%
same,cell viability,[6],111%
same,cell viability,[7],108%
same,cell viability,[8],83.7%
same,cell viability,[9],76%
same,cell viability,[10],36.7%
same,cell viability,[11],35.6%
same,cell viability,[12],113%
same,cell viability,[13],113%
same,cell viability,[14],119%
same,cell viability,[15],123%
same,cell viability,[16],117%
same,cell viability,[17],120%
same,cell viability,[18],109%
same,cell viability,[19],79%
same,cell viability,[20],65.4%
same,cell viability,[21],44.8%
same,cell viability,[22],26.4%
same,cell viability,[23],107%
same,cell viability,[24],119%
same,cell viability,[25],123%
same,cell viability,[26],123%
same,cell viability,[27],110%
same,cell viability,[28],115%
same,cell viability,[29],95.9%
same,cell viability,[30],77.1%
same,cell viability,[31],61.9%
same,cell viability,[32],36.1%
same,cell viability,[33],35.3%

# Reference: the supplement of paper PMC11451515
